According to PubChem BioAssay (NCI):
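Assay format: 96-well plates, 48-hour exposure. At the TGI there is no net growth.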

How the values were obtained:
Experiment in all cases: NCI-60 cell line screen, 48 h
786-0 renal = tested on: 786-0 renal
A549 NSCLC = tested on: A549 NSCLC
ACHN renal = tested on: ACHN renal
CAKI-1 renal = tested on: CAKI-1 renal
CCRF-CEM leukemia = tested on: CCRF-CEM leukemia
COLO 205 colon = tested on: COLO 205 colon
DLD-1 colon = tested on: DLD-1 colon
DMS 114 small cell lung = tested on: DMS 114 small cell lung
DMS 273 small cell lung = tested on: DMS 273 small cell lung
EKVX NSCLC = tested on: EKVX NSCLC
HCC-2998 colon = tested on: HCC-2998 colon
HCT-116 colon = tested on: HCT-116 colon
HCT-15 colon = tested on: HCT-15 colon
HL-60(TB) leukemia = tested on: HL-60(TB) leukemia
HOP-18 NSCLC = tested on: HOP-18 NSCLC
HOP-62 NSCLC = tested on: HOP-62 NSCLC
HT29 colon = tested on: HT29 colon
IGROV1 ovarian = tested on: IGROV1 ovarian
K-562 leukemia = tested on: K-562 leukemia
KM12 colon = tested on: KM12 colon
KM20L2 colon = tested on: KM20L2 colon
LOX IMVI melanoma = tested on: LOX IMVI melanoma
LXFL 529 NSCLC = tested on: LXFL 529 NSCLC
M14 melanoma = tested on: M14 melanoma
M19-MEL melanoma = tested on: M19-MEL melanoma
MALME-3M melanoma = tested on: MALME-3M melanoma
MOLT-4 leukemia = tested on: MOLT-4 leukemia
NCI-H226 lung = tested on: NCI-H226 lung
NCI-H23 lung = tested on: NCI-H23 lung
NCI-H460 lung = tested on: NCI-H460 lung
NCI-H522 lung = tested on: NCI-H522 lung
OVCAR-3 ovarian = tested on: OVCAR-3 ovarian
OVCAR-4 ovarian = tested on: OVCAR-4 ovarian
OVCAR-5 ovarian = tested on: OVCAR-5 ovarian
OVCAR-8 ovarian = tested on: OVCAR-8 ovarian
RPMI-8226 leukemia = tested on: RPMI-8226 leukemia
RXF 393 renal = tested on: RXF 393 renal
RXF-631 renal = tested on: RXF-631 renal
SF-268 CNS = tested on: SF-268 CNS
SF-295 CNS = tested on: SF-295 CNS
SF-539 CNS = tested on: SF-539 CNS
SK-MEL-2 melanoma = tested on: SK-MEL-2 melanoma
SK-MEL-28 melanoma = tested on: SK-MEL-28 melanoma
SK-OV-3 ovarian = tested on: SK-OV-3 ovarian
SN12C renal = tested on: SN12C renal
SNB-19 CNS = tested on: SNB-19 CNS
SR leukemia = tested on: SR leukemia
SW-620 colon = tested on: SW-620 colon
TK-10 renal = tested on: TK-10 renal
U251 CNS = tested on: U251 CNS
UACC-257 melanoma = tested on: UACC-257 melanoma
UACC-62 melanoma = tested on: UACC-62 melanoma
UO-31 renal = tested on: UO-31 renal
XF 498 CNS = tested on: XF 498 CNS
HOP-92 NSCLC = tested on: HOP-92 NSCLC
SNB-75 CNS = tested on: SNB-75 CNS
SNB-78 CNS = tested on: SNB-78 CNS

## COc1ccc(/C=C/C(=O)c2sc(-n3nc(-c4ccccc4)cc3-c3ccccc3)nc2C)cc1OC
786-0 renal
  TGI: > 100 µM
A549 NSCLC
  TGI: > 100 µM
ACHN renal
  TGI: > 100 µM
CAKI-1 renal
  TGI: > 100 µM
CCRF-CEM leukemia
  TGI: 92.1 µM
COLO 205 colon
  TGI: > 100 µM
DLD-1 colon
  TGI: > 100 µM
DMS 114 small cell lung
  TGI: > 100 µM
DMS 273 small cell lung
  TGI: > 100 µM
EKVX NSCLC
  TGI: > 100 µM
HCC-2998 colon
  TGI: > 100 µM
HCT-116 colon
  TGI: > 100 µM
HCT-15 colon
  TGI: > 100 µM
HL-60(TB) leukemia
  TGI: 62.2 µM
HOP-18 NSCLC
  TGI: > 100 µM
HOP-62 NSCLC
  TGI: > 100 µM
HT29 colon
  TGI: > 100 µM
IGROV1 ovarian
  TGI: > 100 µM
K-562 leukemia
  TGI: 83.3 µM
KM12 colon
  TGI: > 100 µM
KM20L2 colon
  TGI: 63.7 µM
LOX IMVI melanoma
  TGI: 96.6 µM
LXFL 529 NSCLC
  TGI: > 100 µM
M14 melanoma
  TGI: > 100 µM
M19-MEL melanoma
  TGI: > 100 µM
MALME-3M melanoma
  TGI: > 100 µM
MOLT-4 leukemia
  TGI: 64.8 µM
NCI-H226 lung
  TGI: > 100 µM
NCI-H23 lung
  TGI: > 100 µM
NCI-H460 lung
  TGI: > 100 µM
NCI-H522 lung
  TGI: 53.9 µM
OVCAR-3 ovarian
  TGI: 62.5 µM
OVCAR-4 ovarian
  TGI: > 100 µM
OVCAR-5 ovarian
  TGI: 92.6 µM
OVCAR-8 ovarian
  TGI: > 100 µM
RPMI-8226 leukemia
  TGI: 70 µM
RXF 393 renal
  TGI: > 100 µM
RXF-631 renal
  TGI: > 100 µM
SF-268 CNS
  TGI: 84.2 µM
SF-295 CNS
  TGI: 74.2 µM
SF-539 CNS
  TGI: 81.1 µM
SK-MEL-2 melanoma
  TGI: > 100 µM
SK-MEL-28 melanoma
  TGI: > 100 µM
SK-OV-3 ovarian
  TGI: > 100 µM
SN12C renal
  TGI: > 100 µM
SNB-19 CNS
  TGI: > 100 µM
SR leukemia
  TGI: 78.2 µM
SW-620 colon
  TGI: > 100 µM
TK-10 renal
  TGI: > 100 µM
U251 CNS
  TGI: > 100 µM
UACC-257 melanoma
  TGI: > 100 µM
UACC-62 melanoma
  TGI: 52.2 µM
UO-31 renal
  TGI: > 100 µM
XF 498 CNS
  TGI: > 100 µM

## COc1cc(/C=C/C(=N\NC(=O)c2ccccc2)c2sc(Nc3ccc(Cl)c(Cl)c3)nc2C)ccc1O
786-0 renal
  TGI: > 100 µM
A549 NSCLC
  TGI: > 100 µM
ACHN renal
  TGI: 87.2 µM
CAKI-1 renal
  TGI: > 100 µM
CCRF-CEM leukemia
  TGI: > 100 µM
COLO 205 colon
  TGI: > 100 µM
DLD-1 colon
  TGI: > 100 µM
DMS 114 small cell lung
  TGI: 71.5 µM
EKVX NSCLC
  TGI: > 100 µM
HCC-2998 colon
  TGI: 91.8 µM
HCT-116 colon
  TGI: > 100 µM
HCT-15 colon
  TGI: > 100 µM
HL-60(TB) leukemia
  TGI: 40 µM
HOP-18 NSCLC
  TGI: 79.3 µM
HOP-62 NSCLC
  TGI: > 100 µM
HOP-92 NSCLC
  TGI: 16.3 µM
HT29 colon
  TGI: > 100 µM
IGROV1 ovarian
  TGI: > 100 µM
K-562 leukemia
  TGI: 95.9 µM
KM12 colon
  TGI: > 100 µM
KM20L2 colon
  TGI: > 100 µM
LOX IMVI melanoma
  TGI: 44.9 µM
LXFL 529 NSCLC
  TGI: > 100 µM
M14 melanoma
  TGI: 93.4 µM
M19-MEL melanoma
  TGI: > 100 µM
MALME-3M melanoma
  TGI: 70.6 µM
MOLT-4 leukemia
  TGI: 66.6 µM
NCI-H226 lung
  TGI: 56 µM
NCI-H23 lung
  TGI: 77.3 µM
NCI-H460 lung
  TGI: > 100 µM
NCI-H522 lung
  TGI: 47.6 µM
OVCAR-3 ovarian
  TGI: 76.6 µM
OVCAR-4 ovarian
  TGI: > 100 µM
OVCAR-5 ovarian
  TGI: 81.1 µM
OVCAR-8 ovarian
  TGI: > 100 µM
RXF 393 renal
  TGI: > 100 µM
RXF-631 renal
  TGI: 72.5 µM
SF-268 CNS
  TGI: > 100 µM
SF-295 CNS
  TGI: > 100 µM
SF-539 CNS
  TGI: > 100 µM
SK-MEL-2 melanoma
  TGI: 64.3 µM
SK-MEL-28 melanoma
  TGI: > 100 µM
SK-OV-3 ovarian
  TGI: > 100 µM
SN12C renal
  TGI: > 100 µM
SNB-19 CNS
  TGI: > 100 µM
SNB-75 CNS
  TGI: > 100 µM
SNB-78 CNS
  TGI: 93.2 µM
SR leukemia
  TGI: 62.3 µM
SW-620 colon
  TGI: > 100 µM
TK-10 renal
  TGI: > 100 µM
U251 CNS
  TGI: 88.9 µM
UACC-257 melanoma
  TGI: > 100 µM
UACC-62 melanoma
  TGI: 26.1 µM
UO-31 renal
  TGI: 77.7 µM
XF 498 CNS
  TGI: 91.3 µM
